Results as given in patent publication US20240329063A1, “METHOD FOR EVALUATING RESIDUAL PLATELET THROMBOTIC POTENTIAL IN PATIENTS UNDERGOING ANTIPLATELET TREATMENT” (Centro Cardiologico Monzino S.P.A., priority 2021, published 2024).

Legend:
TF [1] = details: clopidogrel 75 mg/day, FIG. 1A
Experimental: (§1) The in vitro experiments were conducted on 10 healthy volunteers (n=5 males and n=5 females; average age 39±6) who had not taken antiplatelet medicaments in the 10 days before the blood sample was taken. The effect of clopidogrel on TF expression was evaluated on 193 patients suffering from coronary artery disease (CAD) with myocardial infarction with non-ST elevation. […] The clinical characteristics of the patients enrolled are set out in Table 1.
(§2) The exclusion criteria were: age >80 years, valvular heart disease, atrial fibrillation, thyrotoxicosis, history of haemorrhagic diathesis, platelet disorder or thrombocytopenia, anticoagulant or thrombolytic treatment. A subject with severe congenital P2Y12 deficiency (person) was also studied.
(§3) Whole blood (WB) samples were taken with a 19 gauge needle without venous stasis in tubes containing sodium citrate (0.129 M, 1/10 volume/volume) (Vacutainer, Becton Dickinson), discarding the first 4 ml. The blood samples were then processed within 15 minutes of sample-drawing. The WB was centrifuged (room temperature, without centrifuge brake) at 100 g for 10 minutes to isolate the platelets. The platelet-rich plasma (PRP) was transferred to a new test tube and analysed with the Sysmex XE-2100 Automated Hematology Analyzer to determine the platelet count, mean platelet volume (MPV), platelet distribution […] (PDW), platelet recovery (defined as the percentage of the platelet count in the PRP to 100% of the number of platelets in the WB), and leukocyte contamination. Only the platelet preparations free of leukocyte contamination and with platelet recovery >70% were used for the subsequent thrombin generation analysis.
(§4) Surface expression of platelet activation markers was analysed by flow cytometry as previously described (Brambilla M, et al., Arterioscler Thromb Vasc Biol. 2008;28 (5): 947-953). Briefly, the samples were incubated/labelled with saturating concentrations of mouse monoclonal antibodies recognizing human tissue factor (HTF1; Thermo Fisher), P-selectin (APC; Becton Dickinson), PAC1 (FITC; Becton Dickinson), CD36 (PE; Becton Dickinson) and CD154 (FITC; Becton Dickinson). For the analysis of intracellular expression of TF, the cells were fixed for 2 hours with 1% paraformaldehyde, permeabilised for 10 min with an 0.1% solution of Triton X-100 PBS, and labelled for 15 min at room temperature in the dark with saturating concentrations of anti-TF and CD61 antibodies (PerCP; Becton Dickinson).

P-selectin [2] = details: clopidogrel 75 mg/day; 10 μM ADP; all CAD patients, to the same extent regardless of the degree of VASP phosphorylation; FIG. 1C
Experimental: as §1, §2, §3, §4

aGPIIbIIIa [3] = details: clopidogrel 75 mg/day; 10 μM ADP; FIG. 1B
Experimental: as §1, §2, §3, §4

TF [4] = assay: ADP-induced TF expression on platelets, flow cytometry, in vitro antagonist inhibition curves; format: cell-based, human; details: ADP-stimulated platelets, spread as % CV, FIG. 1D-F
Experimental: (§5) The data obtained in patients without clopidogrel (No clopido) (n=39) are shown for comparison purposes. Panels C, D and E show the ADP concentration-response curves (black squares) and AR-C69931MX antagonist inhibition curves (white triangles) relating to TF, aGPIIbIIIa and P-selectin respectively. The EC50 of the agonist was calculated with a four-parameter logistic model, while the pA2s of the antagonist were calculated as described in Materials and Methods. The results are presented as percentage expression of the protein compared with baseline (s/b). The experiments were conducted at least three times. **p<0.01, ***p<0.001.
(§6) For the analysis of intracellular expression of TF, the cells were fixed for 2 hours with 1% paraformaldehyde, permeabilised for 10 min with an 0.1% solution of Triton X-100 PBS, and labelled for 15 min at room temperature in the dark with saturating concentrations of anti-TF and CD61 antibodies (PerCP; Becton Dickinson). […] All the data were analysed with Kaluza analysis software v1.5 (Beckman Coulter) and reported as percentage of positive cells or MFI (mean fluorescence intensity) of platelets positive to the activation marker.
(§7) A p-value of 0.05 was considered statistically significant. […] All curves shown are generated by informatics methods.

P-selectin [5] = assay: ADP-induced P-selectin expression on platelets, flow cytometry, in vitro antagonist inhibition curves; format: cell-based, human
Experimental: as §5, §6, §7

aGPIIbIIIa [6] = assay: ADP-induced aGPIIbIIIa expression (PAC1 binding) on platelets, flow cytometry, in vitro antagonist inhibition curves; format: cell-based, human; details: ADP-stimulated platelets, spread as % CV, FIG. 1D-F
Experimental: as §5, §6, §7

SMILES | inhibition of TF exposed to stimulation with 10 μM ADP, poor responders versus good responders (TF [1]; patients with PRI >60% compared with PRI <60%) | inhibition of TF exposed to stimulation with 10 μM ADP, poor responders versus untreated subjects (TF [1]; patients with PRI >60% compared with subjects not treated with clopidogrel) | P-selectin expression (P-selectin [2]) | expression of activated glycoprotein IIbIIIa measured by the PAC1 bond (aGPIIbIIIa [3]) | pA2 for inhibition of TF expression (TF [4]) | pA2 for inhibition of P-selectin expression (P-selectin [5]; ADP-stimulated platelets, spread as % CV, FIG. 1D-F) | power (pA2) to inhibit P-selectin expression relative to that required to inhibit TF (P-selectin [5]; P-selectin versus TF) [times] | power (pA2) to inhibit P-selectin expression relative to that required to inhibit aGPIIbIIIa (P-selectin [5]; P-selectin versus aGPIIbIIIa) [times] | pA2 for inhibition of aGPIIbIIIa expression (aGPIIbIIIa [6])
COC(=O)[C@H](c1ccccc1Cl)N1CCc2sccc2C1 [clopidogrel] | significantly less than that measured in the good responders | not statistically different from that measured in the subjects not treated with clopidogrel | significantly inhibited | highest in the poor responders | – | – | – | – | –
CSCCNc1nc(SCCC(F)(F)F)nc2c1ncn2[C@@H]1O[C@H](COP(=O)(O)OP(=O)(O)C(Cl)(Cl)P(=O)(O)O)[C@@H](O)[C@H]1O [AR-C69931MX] | – | – | – | – | 9.33±2.1 | 11.5±3.1 | 150 | 6 | 10.7±0.29
